Laboratory results reported in patent publication US20100166727A1, “S-Adenosylmethionine And Methylthioadensosine In Chemoprevention And Treatment Of Colon Polyps And Cancer” (UNIVERSITY OF SOUTHERN CALIFORNIA, priority 2007, published 2010).

How the values were obtained:
MAT II = MAT II (Rattus norvegicus, UniProt P18298); conditions: cited from earlier work
NCM460 cells = experiment: Toxicity and apoptosis in NCM460 normal colonic epithelial cells; assay type: cell-based, human
Experimental: In these experiments the total treatment duration was limited to 16 hrs to avoid the apoptotic effect. […] Apoptosis was measured by Hoechst staining or Annexin V and propidium iodide staining on flow cytometry.

MAT2A = MAT2A mRNA levels by real-time PCR in HT-29 cells; assay type: cell-based, human; conditions: for MAT2A expression: 6 hr treatment, HT-29 cells
Experimental: HT-29 and RKO cells were obtained from the Cell Culture Core of the USC Liver Disease Research Center and grown according to instructions provided by the American Type Culture Collection (ATCC, Rockville, Md.). Prior to treatment with growth factors, SAMe or MTA, medium was changed to 0.1% FBS overnight.
RNA interference (RNAi) experiments were performed using Lipofectamine RNAiMax (Invitrogen) according to the manufacturer's instructions. Small interfering RNA (siRNA) oligonucleotides for MAT2A and scrambled siRNA were synthesized by the USC Norris Comprehensive Cancer Center Microchemical Core Laboratory, and annealed to form duplexes. Stealth RNAi for MAT2A and Stealth RNAi negative control duplexes were synthesized by Invitrogen (Carlsbad, Calif.). The following siRNA sequences were used: si-MAT2A #1, 5′-[…]-3′ (sense) and 5′-[…]-3′ (antisense); si-control with scrambled sequence (negative control siRNA having no perfect matches to known human genes), 5′-[…]dTdT-3′ (sense) and 5% […]dTdT-3′ (antisense); stealth RNAi-MAT2A #5, 5′-[…]-3′ (sense) and 5′-[…]-3′ (antisense). […]
Total RNA was isolated by the EZgeno total RNA isolation kit (Genemega, San Giego, Calif.), and subjected to reverse transcription (RT) by using M-MLV Reverse transcriptase (Invitrogen). 2 μl of RT product was subjected to quantitative real-time PCR analysis. The primers and TaqMan probes for MAT2A, MAT2β and Universal PCR Master Mix were purchased from ABI (Foster City, Calif.). Hypoxanthine phosphoribosyl-transferase 1 (HPRT1) and ubiquitin C (UBC) were used as housekeeping genes (48). The thermal profile consisted of 1 cycle at 95° C. for 15 minutes followed by 40 cycles at 95° C. for 15 seconds and at 60° C. for 1 minute. The expression of MAT2A and MAT2β was checked by normalizing the Ct of MAT2A and MAT2β to that of the control housekeeping gene (HPRT1 or UBC) (49). The delta Ct obtained was used to find the relative expression of MAT genes according to the formula: Relative expression=2·^ΔCt, where ΔCt=ΔCt of MAT genes in colon cancer or treated cells—ΔCt of MAT genes in normal colon or control cells.

Sequence of MAT II (P18298 whole entry): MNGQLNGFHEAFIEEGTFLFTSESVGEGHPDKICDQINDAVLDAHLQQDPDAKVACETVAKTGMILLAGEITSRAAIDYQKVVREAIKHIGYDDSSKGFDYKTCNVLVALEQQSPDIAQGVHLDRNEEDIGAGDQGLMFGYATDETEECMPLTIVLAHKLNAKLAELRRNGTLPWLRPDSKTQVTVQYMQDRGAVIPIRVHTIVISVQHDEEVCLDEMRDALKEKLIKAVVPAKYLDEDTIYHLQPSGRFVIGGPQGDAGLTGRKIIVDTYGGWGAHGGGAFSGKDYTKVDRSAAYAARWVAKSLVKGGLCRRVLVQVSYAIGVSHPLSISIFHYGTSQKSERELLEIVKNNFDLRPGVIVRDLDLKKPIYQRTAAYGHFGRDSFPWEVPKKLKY
Sequence of MAT II (Q5U2R0 whole entry partner): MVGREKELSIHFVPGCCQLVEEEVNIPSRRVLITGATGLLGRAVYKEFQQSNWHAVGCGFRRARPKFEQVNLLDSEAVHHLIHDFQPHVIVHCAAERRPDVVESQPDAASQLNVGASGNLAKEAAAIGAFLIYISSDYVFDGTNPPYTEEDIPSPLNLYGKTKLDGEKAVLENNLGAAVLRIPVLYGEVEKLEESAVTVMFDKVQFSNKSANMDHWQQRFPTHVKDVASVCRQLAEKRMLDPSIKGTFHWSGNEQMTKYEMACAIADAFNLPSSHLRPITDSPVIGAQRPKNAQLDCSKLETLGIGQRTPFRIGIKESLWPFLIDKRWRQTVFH

C[S+](CC[C@H](N)C(=O)O)C[C@H]1O[C@@H](n2cnc3c(N)ncnc32)[C@H](O)[C@@H]1O (stereo partly shown) [SAMe, S-adenosylmethionine]
Inhibition by SAMe (MAT II; MAT II): Yes | IC50 (MAT II; read-out: IC50, inhibition of MAT II): 60 µM | menadione (MQ)-induced toxicity in NCM460 cells (NCM460 cells): protected against menadione (MQ)-induced toxicity | MAT2A expression (MAT2A; 0.5 mM SAMe): 81 % baseline | MAT2A expression (MAT2A; 1 mM SAMe): 65 % baseline | MAT2A expression (MAT2A; 2 mM SAMe): 55 % baseline | MAT2A expression (MAT2A; 5 mM SAMe): 38 % of baseline | reduction of baseline expression of MAT2A (MAT2A; SAMe 5 mM or MTA 1 mM, 6 hrs, HT29 cells): 60% | IGF-1-mediated induction of MAT2A on co-treatment (MAT2A; co-treatment 3 hrs): blunted the IGF-1-mediated induction of MAT2A | leptin- or EGF-induced MAT2A expression on co-treatment (MAT2A; co-treatment with leptin (6 hrs) or EGF (3 hrs)): prevented the ability of these growth factors to induce MAT2A
